The supplement of paper PMC10307832

Compound: C1=CC2=NC=CN=C2C=C1/C=C/3\C(=O)NC(=O)S3 + CS(=O)(=O)CCNCc1ccc(-c2ccc3ncnc(Nc4ccc(OCc5cccc(F)c5)c(Cl)c4)c3c2)o1 [Lapatinib] (partner 2 µM)
Experiment: relative viability (nuclei count vs DMSO), 5 days (fraction); higher = more cells survive
Conditions: first compound 0.02 µM
Outline: (§1)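 Relative viability is defined as nuclei in treated wells over nuclei in vehicle wells. Duplicate plates were run and medians reported. Lung cancer cell lines in 1536-well plates were dosed by pin tool one day after seeding, with one drug or with a fixed anchor-drug dose plus five library-drug doses (not always all listed) in √10 steps, and nuclei were counted after 5 days.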

Cell Line	relative viability
LC-2-ad	0.927
NCI-H1563	0.876
NCI-H1944	0.834
NCI-H1975	0.707
RERF-LC-KJ	0.729
ABC-1	1.06
NCI-H358	0.554
NCI-H650	1.13
PC-3 [JPC-3]	0.481

Same assay, conditions: first compound 0.06325 µM

Cell Line	relative viability
LC-2-ad	1.04
NCI-H1563	0.854
NCI-H1944	0.966
NCI-H1975	1.24
RERF-LC-KJ	0.923
ABC-1	0.754
NCI-H358	0.497
NCI-H650	1.1
PC-3 [JPC-3]	0.559

Same assay, conditions: first compound 0.2 µM

Cell Line	relative viability
LC-2-ad	0.949
NCI-H1563	0.898
NCI-H1944	0.801
NCI-H1975	0.907
RERF-LC-KJ	0.842
ABC-1	1.18
NCI-H358	0.461
NCI-H650	1.09
PC-3 [JPC-3]	0.454

Same assay, conditions: first compound 0.6325 µM

Cell Line	relative viability
LC-2-ad	0.924
NCI-H1563	0.867
NCI-H1944	0.735
NCI-H1975	0.84
RERF-LC-KJ	0.759
ABC-1	1
NCI-H358	0.359
NCI-H650	0.835
PC-3 [JPC-3]	0.439

Same assay, conditions: first compound 2 µM

Cell Line	relative viability
LC-2-ad	0.797
NCI-H1563	0.873
NCI-H1944	0.486
NCI-H1975	0.791
RERF-LC-KJ	0.689
ABC-1	1.02
NCI-H358	0.274
NCI-H650	0.5
PC-3 [JPC-3]	0.441

Compound: CCN1CCN(c2ccc(Nc3cc(N(C)C(=O)Nc4c(Cl)c(OC)cc(OC)c4Cl)ncn3)cc2)CC1 [BGJ398] + COc1cccc2cc(-c3nc([C@H]4CC[C@H](C(=O)O)CC4)n4ncnc(N)c34)[nH]c12 [OSI-027] (partner 0.5 µM)
Experiment: as above
Conditions: first compound 0.01 µM
Outline: as §1

Cell Line	relative viability
LC-2-ad	0.763
NCI-H1563	0.703
NCI-H1944	0.364
NCI-H1975	0.71
RERF-LC-KJ	0.587
ABC-1	0.435
NCI-H358	0.611
NCI-H650	0.477
PC-3 [JPC-3]	0.738

Same assay, conditions: first compound 0.03162 µM

Cell Line	relative viability
LC-2-ad	0.935
NCI-H1563	0.788
NCI-H1944	0.425
NCI-H1975	0.923
RERF-LC-KJ	0.576
ABC-1	0.505
NCI-H358	0.793
NCI-H650	0.519

Same assay, conditions: first compound 0.1 µM

Cell Line	relative viability
LC-2-ad	0.832
NCI-H1563	0.785
NCI-H1944	0.436
NCI-H1975	0.736
RERF-LC-KJ	0.654
ABC-1	0.442
NCI-H358	0.81
NCI-H650	0.535
PC-3 [JPC-3]	0.76

Same assay, conditions: first compound 0.3162 µM

Cell Line	relative viability
LC-2-ad	0.779
NCI-H1563	0.672
NCI-H1944	0.388
NCI-H1975	0.629
RERF-LC-KJ	0.573
ABC-1	0.403
NCI-H358	0.798
NCI-H650	0.505
PC-3 [JPC-3]	0.578

Same assay, conditions: first compound 1 µM

Cell Line	relative viability
LC-2-ad	0.829
NCI-H1563	0.665
NCI-H1944	0.329
NCI-H1975	0.646
RERF-LC-KJ	0.506
ABC-1	0.408
NCI-H358	1
NCI-H650	0.503
PC-3 [JPC-3]	0.676

Compound: C1=CC2=NC=CN=C2C=C1/C=C/3\C(=O)NC(=O)S3 + C[C@]1(O)C[C@@H](c2nc(-c3ccc4ccc(-c5ccccc5)nc4c3)c3c(N)nccn32)C1 [Linsitinib] (partner 1 µM)
Experiment: as above
Conditions: first compound 0.02 µM
Outline: as §1

Cell Line	relative viability
LC-2-ad	0.76
NCI-H1563	1.19
NCI-H1944	1.18
NCI-H1975	0.819
RERF-LC-KJ	0.82
ABC-1	0.76
NCI-H358	0.776
NCI-H650	1.13
PC-3 [JPC-3]	0.889

Same assay, conditions: first compound 0.06325 µM

Cell Line	relative viability
LC-2-ad	0.885
NCI-H1563	1.23
NCI-H1944	1.22
NCI-H1975	1.01
RERF-LC-KJ	1.03
ABC-1	0.761
NCI-H358	0.764
NCI-H650	0.922
PC-3 [JPC-3]	1.01

Same assay, conditions: first compound 0.2 µM

Cell Line	relative viability
LC-2-ad	0.784
NCI-H1563	1.12
NCI-H1944	1.22
NCI-H1975	1.09
RERF-LC-KJ	0.894
ABC-1	0.758
NCI-H358	0.754
NCI-H650	1.17
PC-3 [JPC-3]	0.879

Same assay, conditions: first compound 0.6325 µM

Cell Line	relative viability
LC-2-ad	0.726
NCI-H1563	1.1
NCI-H1944	0.944
NCI-H1975	0.884
RERF-LC-KJ	0.811
ABC-1	1.01
NCI-H358	0.647
NCI-H650	0.832
PC-3 [JPC-3]	0.923

Same assay, conditions: first compound 2 µM

Cell Line	relative viability
LC-2-ad	0.854
NCI-H1563	1.3
NCI-H1944	1.12
NCI-H1975	0.934
RERF-LC-KJ	0.853
ABC-1	0.804
NCI-H358	0.74
NCI-H650	0.731
PC-3 [JPC-3]	0.963

Compound: C1=CC2=NC=CN=C2C=C1/C=C/3\C(=O)NC(=O)S3 + C[C@@H](Oc1cc(-c2cnn(C3CCNCC3)c2)cnc1N)c1c(Cl)ccc(F)c1Cl [Crizotinib] (partner 1 µM)
Experiment: as above
Conditions: first compound 0.02 µM
Outline: as §1

Cell Line	relative viability
LC-2-ad	0.412
NCI-H1563	0.842
NCI-H1944	1.07
NCI-H1975	1.02
RERF-LC-KJ	0.547
ABC-1	1.15
NCI-H358	0.732
NCI-H650	0.805
PC-3 [JPC-3]	0.954

Same assay, conditions: first compound 0.06325 µM

Cell Line	relative viability
LC-2-ad	0.363
NCI-H1563	0.898
NCI-H1944	1.06
NCI-H1975	1.01
RERF-LC-KJ	0.927
ABC-1	1.05
NCI-H358	0.568
NCI-H650	0.707
PC-3 [JPC-3]	1.01

Same assay, conditions: first compound 0.2 µM

Cell Line	relative viability
LC-2-ad	0.402
NCI-H1563	0.86
NCI-H1944	1.01
NCI-H1975	0.937
RERF-LC-KJ	0.864
ABC-1	1.21
NCI-H358	0.561
NCI-H650	0.627
PC-3 [JPC-3]	0.944

Same assay, conditions: first compound 0.6325 µM

Cell Line	relative viability
LC-2-ad	0.44
NCI-H1563	0.861
NCI-H1944	0.993
NCI-H1975	1.03
RERF-LC-KJ	0.837
ABC-1	0.91
NCI-H358	0.551
NCI-H650	0.714
PC-3 [JPC-3]	1.01

Same assay, conditions: first compound 2 µM

Cell Line	relative viability
LC-2-ad	0.715
NCI-H1563	0.831
NCI-H1944	1.1
NCI-H1975	0.97
RERF-LC-KJ	0.753
ABC-1	1.09
NCI-H358	0.573
NCI-H650	0.652
PC-3 [JPC-3]	1.01
